# In patent US12173088B2, “Anti-microbial peptides” (priority 2018, dated 2024):
# Like-named read-outs stand apart in the source and are kept apart here. Peptide text beside a SMILES is read from it.
# How the values were obtained:
# S. aureus USA300 = assay: microbe, parasite or virus in culture; type: cell-based, Staphylococcus aureus
# Description: The bacterial strains used include the Gram-positive strains Staphylococcus aureus USA300 LAC, S. epidermidis 1457, and Bacillus subtilis 168, as well as the Gram-negative isolates Escherichia coli K12 and Acinetobacter baumannii B2367-12. Additional, drug resistance strains include Gram-positive Enterococcus faecium V286-17 (VRE) and S. aureus M838-17 (MRSA) and Gram-negative E. coli E423-17, E. coli E416-17 (ampC), and P. aeruginosa E411-17. Bacteria were cultivated in tryptic soy broth (TSB) (BD Bioscience, MD).
# (§1) The antibacterial activity of peptides was evaluated using a standard broth microdilution protocol with minor modifications as described (Mishra, et al. (2012) J. Am. Chem. Soc., 134:12426-12429). In brief, logarithmic phase bacterial cultures (i.e., optical density at 600 nm≈0.5) were diluted to OD600 0.001 and partitioned into a 96-well polystyrene microplate at 90 μL per well. After treatment with 10 μL of peptide solutions two fold diluted to various concentrations, microplates were incubated at 37° C. overnight and read on a ChroMate® 4300 Microplate Reader at 630 nm (GMI, Ramsey, MN). […] To study the influence of medium conditions on the antimicrobial activity of peptides against S. aureus USA300, up to 200 mM sodium chloride (NaCl), 2 mM of calcium chloride, 5-10% of human serum, mouse plasma, fluid, or supernatants of tissue homogenates were included into the assays.
# (§2) The bacterial strains used include the Gram-positive bacteria methicillin-resistant Staphylococcus aureus USA300, Enterococcus faecium V286-17 (VRE), S. aureus M838-17 (MRSA) and Gram-negative bacteria E. coli E423-17, E416-7 (ampC), P. aeruginosa E411-17, PA01, K. pneumoniae E406-17, ATCC13883, and A. baumannii B26-16. Bacteria were cultivated in tryptic soy broth (TSB) from BD Bioscience.
# (§3) The antibacterial activity of peptides was evaluated using a standard broth microdilution protocol with minor modifications (Mishra, et al. (2017) Acta Biomater., 49:316-328). In brief, logarithmic phase bacterial cultures (i.e., optical density at 600 nm≈0.5) were diluted to 0.001 OD and aliquoted 90 μL per well into a 96-well polystyrene microplate. Added 10 μL peptides per well with various concentrations, plates were incubated at 37° C., overnight. Post incubation the plates are read at 630 nm using a ChroMate® Microplate Reader (GMI). […] To study the influence of medium conditions on the antimicrobial activity of peptides against S. aureus USA300 at different pHs (6.8, 7.2, and 8.0), 150 mM sodium chloride (NaCl), 5-10% of human serum, mouse plasma, and peritoneal fluid were included into the assays.
# P. aeruginosa PAO1 = type: cell-based, Pseudomonas aeruginosa
# Protocol: as §1, §2, §3
# E. coli ATCC 25922 = type: cell-based, Escherichia coli
# Protocol: as §1, §3
# [1] = system: human red blood cells (hRBCs); assay: Hemolytic assay; type: cell-based
# Protocol: Briefly, human red blood cells (hRBCs) were washed three times with phosphate buffer saline (PBS) and diluted to a 2% solution (v/v). After peptide treatment, incubation at 37° C. for one hour, and centrifugation at 5000 rpm for 10 minutes, aliquots of the supernatant were carefully transferred to a fresh 96-well microplate. The amount of hemoglobin released was measured at 545 nm. The percent lysis was calculated by assuming 100% release when human blood cells were treated with 2% Triton™ X-100, and 0% release when incubated with PBS buffer. The peptide concentration that caused 50% lysis of hRBCs is defined as HL50. The cell selectivity index (CSI) was calculated as the ratio between HL50 and MIC of the corresponding peptide against a select pathogenic species.
# Hemolytic assays of peptides were performed as described (Mishra, et al. (2017) Acta Biomater., 49:316-328). Briefly, human red blood cells (hRBCs) obtained from UNMC Blood Bank. The blood washed 3× with isotonic saline (0.9% NaCl) and diluted to 2% blood cells (v/v). Peptide horine and verine at various concentrations were added into the 2% blood cells and incubated at 37° C. for 1 hour. Post incubation the plates were spun at 2000 rpm for 10 minutes, aliquots of the supernatant were carefully transferred to a fresh 96-well microplate. The amount of cells lysed is proportional to the hemoglobin released and measured at 545 nm using a ChroMate® microplate reader. The percent lysis was calculated by assuming 100% release when human blood cells were treated with 1% Triton™ X-100, and 0% release when incubated with PBS. The peptide concentration that caused 50% lysis of hRBCs is defined as HL50.
# K. pneumoniae ATCC 13883 = type: cell-based, Klebsiella pneumoniae; details: ATCC 13883
# Protocol: as §1, §2, §3
SMILES,MIC S. aureus USA 300 (S. aureus USA300; USA300) [µM],MIC P. aeruginosa PAO1 (P. aeruginosa PAO1; PAO1) [µM],MIC E. coli ATCC 25922 (E. coli ATCC 25922; ATCC 25922) [µM],HL50 [1] [µM],MIC K. pneumoniae ATCC 13883 (K. pneumoniae ATCC 13883) [µM],further results
"CC(C)C[C@H](NC(=O)[C@H](CC(C)C)NC(=O)[C@H](CCCCN)NC(=O)CNC(=O)[C@H](C)NC(=O)[C@H](C)NC(=O)[C@H](CCCCN)NC(=O)[C@H](CC(C)C)NC(=O)[C@H](C)NC(=O)[C@H](CO)NC(=O)[C@H](CC(C)C)NC(=O)[C@H](CC(C)C)NC(=O)CN)C(N)=O [DFT521, GLLSALKAAGKLL] (H-GLLSALKAAGKLL-NH2; N-terminus assumed)",12.5,>25,12.5,>50,–,MIC against S. aureus (S. aureus USA300; USA300): 12.5 to 25 µM
"CC(C)C[C@H](NC(=O)[C@H](CC(C)C)NC(=O)[C@H](CCCCN)NC(=O)CNC(=O)[C@H](C)NC(=O)[C@H](C)NC(=O)[C@H](CCCCN)NC(=O)[C@H](C)NC(=O)[C@H](C)NC(=O)[C@H](CO)NC(=O)[C@H](CC(C)C)NC(=O)[C@H](CC(C)C)NC(=O)CN)C(N)=O [DFT522, GLLSAAKAAGKLL] (H-GLLSAAKAAGKLL-NH2; N-terminus assumed)",>25,>25,>25,50,–,Antimicrobial activity (S. aureus USA300; at 25 μM): inactive
"CC(C)C[C@H](NC(=O)[C@H](CC(C)C)NC(=O)[C@H](CCCCN)NC(=O)CNC(=O)[C@H](CC(C)C)NC(=O)[C@H](CC(C)C)NC(=O)[C@H](CO)NC(=O)[C@H](CC(C)C)NC(=O)[C@H](CO)NC(=O)[C@H](CC(C)C)NC(=O)[C@H](CC(C)C)NC(=O)CN)C(N)=O [DFT523, GLLSL-SLLGKLL] (H-GLLSLSLLGKLL-NH2; N-terminus and C-terminus assumed)",–,–,–,–,–,"MIC against S. aureus (S. aureus USA300; Example 1): 12.5 to 25 µM; MIC S. aureus USA 300 (S. aureus USA300; Table 3, quantified by UV): 12.5 µM; MIC P. aeruginosa PAO1 (P. aeruginosa PAO1; Table 3, quantified by UV): >25 µM; MIC against E. coli (E. coli ATCC 25922): 12.5 to 25 µM; MIC E. coli ATCC 25922 (E. coli ATCC 25922; Table 3, quantified by UV): 25 µM; HL50 ([1]; Table 3, hRBCs 2% v/v): >50 µM"
"CC[C@H](C)[C@H](NC(=O)[C@H](CCCCN)NC(=O)[C@H](CCCNC(=N)N)NC(=O)[C@H](CC(C)C)NC(=O)[C@H](Cc1c[nH]c2ccccc12)NC(=O)[C@@H](N)Cc1c[nH]c2ccccc12)C(=O)N[C@@H](Cc1c[nH]c2ccccc12)C(=O)N[C@@H](Cc1c[nH]c2ccccc12)C(=O)O [WW292, WWLRKIWW] (H-WWLRKIWW-OH; N-terminus and C-terminus assumed)",6.2,–,25,–,>50,–
"CC[C@H](C)[C@H](NC(=O)[C@H](CCCCN)NC(=O)[C@H](CCCNC(=N)N)NC(=O)[C@H](CC(C)C)NC(=O)[C@@H](N)Cc1c[nH]c2ccccc12)C(=O)N[C@@H](Cc1c[nH]c2ccccc12)C(=O)N[C@@H](Cc1c[nH]c2ccccc12)C(=O)N[C@@H](Cc1c[nH]c2ccccc12)C(=O)O [WW293, WLRKIWWW] (H-WLRKIWWW-OH; N-terminus and C-terminus assumed)",3.1 to 6.2,–,12.5 to 25,–,25,–
"CC[C@H](C)[C@H](NC(=O)[C@H](CCCCN)NC(=O)[C@H](CCCNC(=N)N)NC(=O)[C@@H](N)CC(C)C)C(=O)N[C@@H](Cc1c[nH]c2ccccc12)C(=O)N[C@@H](Cc1c[nH]c2ccccc12)C(=O)N[C@@H](Cc1c[nH]c2ccccc12)C(=O)N[C@@H](Cc1c[nH]c2ccccc12)C(=O)O [WW294, LRKIWWWW] (H-LRKIWWWW-OH; N-terminus and C-terminus assumed)",3.1 to 6.2,–,12.5,–,6.2 to 12.5,–
"CC[C@H](C)[C@H](NC(=O)[C@@H](N)CCCCN)C(=O)N[C@@H](Cc1c[nH]c2ccccc12)C(=O)N[C@@H](Cc1c[nH]c2ccccc12)C(=O)N[C@@H](Cc1c[nH]c2ccccc12)C(=O)N[C@@H](Cc1c[nH]c2ccccc12)C(=O)N[C@@H](CC(C)C)C(=O)N[C@@H](CCCNC(=N)N)C(=O)O [WW296, KIWWWWLR] (H-KIWWWWLR-OH; N-terminus and C-terminus assumed)",3.1,–,6.2 to 12.5,–,12.5,–
"CC[C@H](C)[C@H](NC(=O)[C@H](CCCCN)NC(=O)[C@H](CCCNC(=N)N)NC(=O)[C@H](CC(C)C)NC(=O)[C@H](Cc1c[nH]c2ccccc12)NC(=O)[C@H](Cc1c[nH]c2ccccc12)NC(=O)[C@H](Cc1c[nH]c2ccccc12)NC(=O)[C@@H](N)Cc1c[nH]c2ccccc12)C(=O)O [WW298, WWWWLRKI] (H-WWWWLRKI-OH; N-terminus and C-terminus assumed)",1.5 to 3.1,–,12.5,–,6.2 to 12.5,–
"CC[C@H](C)[C@H](NC(=O)[C@H](CCCNC(=N)N)NC(=O)[C@H](CCCNC(=N)N)NC(=O)[C@H](CC(C)C)NC(=O)[C@H](Cc1c[nH]c2ccccc12)NC(=O)[C@H](Cc1c[nH]c2ccccc12)NC(=O)[C@@H](N)Cc1c[nH]c2ccccc12)C(=O)N[C@@H](Cc1c[nH]c2ccccc12)C(N)=O [WW299, WWWLRRIW] (H-WWWLRRIW-NH2; N-terminus and C-terminus assumed)",–,>50,–,35,–,MIC K. pneumonia ATCC 13883 (K. pneumoniae ATCC 13883): 25 µM
"CC[C@H](C)[C@H](NC(=O)[C@H](CCCNC(=N)N)NC(=O)[C@H](CCCNC(=N)N)NC(=O)[C@H](CC(C)C)NC(=O)[C@H](Cc1c[nH]c2ccccc12)NC(=O)[C@H](Cc1c[nH]c2ccccc12)NC(=O)[C@@H](N)CCCNC(=N)N)C(=O)N[C@@H](Cc1c[nH]c2ccccc12)C(N)=O [WW300, RWWLRRIW] (H-RWWLRRIW-NH2; N-terminus and C-terminus assumed)",–,12.5,–,>200,–,MIC K. pneumonia ATCC 13883 (K. pneumoniae ATCC 13883): >50 µM
"CC[C@H](C)[C@H](NC(=O)[C@H](CCCNC(=N)N)NC(=O)[C@H](CCCNC(=N)N)NC(=O)[C@H](CC(C)C)NC(=O)[C@H](Cc1c[nH]c2ccccc12)NC(=O)[C@H](CCCNC(=N)N)NC(=O)[C@@H](N)Cc1c[nH]c2ccccc12)C(=O)N[C@@H](Cc1c[nH]c2ccccc12)C(N)=O [WW301, WRWLRRIW] (H-WRWLRRIW-NH2; N-terminus and C-terminus assumed)",–,6.2,–,100,–,MIC K. pneumonia ATCC 13883 (K. pneumoniae ATCC 13883): 25 µM
